# Source: patent publication US20160031907A1, “Substituted Benzene Compounds” (EPIZYME, INC., priority 2013, published 2016)
# Test system: WSU-DLCL2 cell line
# Test: Cell proliferation analysis (Cell Titer Glo, 6 days)
# Type: cell-based
# Settings: Homo sapiens, WSUDLCL2, 144 h; WSU-DLCL2 cells, 6 days incubation, cell viability by ATP (Cell Titer Glo)
# Text: Cell Proliferation Analysis
# WSU-DLCL2 suspension cells were purchased from DSMZ (German Collection of Microorganisms and Cell Cultures, Braunschweig, Germany). RPMI/Glutamax Medium, Penicillin-Streptomycin, Heat Inactivated Fetal Bovine Serum were purchased from Life Technologies, Grand Island, N.Y., USA. V-bottom polypropylene 384-well plates were purchased from Greiner Bio-One, Monroe, N.C., USA. Cell culture 384-well white opaque plates were purchased from Perkin Elmer, Waltham, Mass., USA. Cell-Titer Glo® was purchased from Promega Corporation, Madison, Wis., USA. SpectraMax M5 plate reader was purchased from Molecular Devices LLC, Sunnyvale, Calif., USA.
# WSU-DLCL2 suspension cells were maintained in growth medium (RPMI 1640 supplemented with 10% v/v heat inactivated fetal bovine serum and cultured at 37° C. under 5% CO2. Under assay conditions, cells were incubated in Assay Medium (RPMI 1640 supplemented with 20% v/v heat inactivated fetal bovine serum and 100 units/mL penicillin-streptomycin) at 37° C. under 5% CO2.
# For the assessment of the effect of compounds on the proliferation of the WSU-DLCL2 cell line, exponentially growing cells were plated in 384-well white opaque plates at a density of 1250 cell/ml in a final volume of 50 μl of assay medium. A compound source plate was prepared by performing triplicate nine-point 3-fold serial dilutions in DMSO, beginning at 10 mM (final top concentration of compound in the assay was 20 μM and the DMSO was 0.2%). A 100 nL aliquot from the compound stock plate was added to its respective well in the cell plate. The 100% inhibition control consisted of cells treated with 200 nM final concentration of staurosporine and the 0% inhibition control consisted of DMSO treated cells. After addition of compounds, assay plates were incubated for 6 days at 37° C., 5% CO2, relative humidity >90% for 6 days. Cell viability was measured by quantization of ATP present in the cell cultures, adding 35 μl of Cell Titer Glo® reagent to the cell plates. Luminescence was read in the SpectraMax M5. The concentration inhibiting cell viability by 50% was determined using a 4-parametric fit of the normalized dose response curves.
smiles,measurement,value
CCN(c1cc(Cl)cc(C(=O)NCc2c[nH]cn2)c1C)C1CCOCC1 [Cpd 30],IC50,44.1 µM
CCN(c1cc(Cl)cc(C(=O)NCCc2ncc[nH]2)c1C)[C@H]1CC[C@H](N(C)C)CC1 [Cpd 10],IC50,> 50 µM
CCN(c1cc(Cl)cc(C(=O)NCc2c(C)ccn3ccnc23)c1C)[C@H]1CC[C@H](N(C)C)CC1 [Cpd 2],IC50,> 25 µM
CCN(c1cc(Cl)cc(C(=O)NCc2nccn2C)c1C)C1CCOCC1 [Cpd 23],IC50,> 50 µM
CCN(c1cc(Cl)cc(C(=O)NCc2cc(C)nn2C)c1C)C1CCOCC1 [Cpd 31],IC50,> 50 µM
CCN(c1cc(Cl)cc(C(=O)NCc2cnn(C)c2C)c1C)C1CCOCC1 [Cpd 27],IC50,> 50 µM
CCN(c1cc(Cl)cc(C(=O)NCc2c(C)cc(C)n3ccnc23)c1C)[C@H]1CC[C@H](N(C)C)CC1 [Cpd 1],IC50,> 25 µM
CCN(c1cc(Cl)cc(C(=O)NCc2ccn(C)n2)c1C)C1CCOCC1 [Cpd 28],IC50,> 50 µM
CCN(c1cc(Cl)cc(C(=O)NCc2cn3ccsc3n2)c1C)C1CCOCC1 [Cpd 26],IC50,> 50 µM
CCN(c1cc(Cl)cc(C(=O)NCc2cncn2C)c1C)C1CCOCC1 [Cpd 22],IC50,> 50 µM
CCN(c1cc(Cl)cc(C(=O)NCc2cn(C)cn2)c1C)C1CCOCC1 [Cpd 25],IC50,> 50 µM
CCN(c1cc(Cl)cc(C(=O)NCc2cc(C)on2)c1C)C1CCOCC1 [Cpd 29],IC50,> 50 µM
CCN(c1cc(Cl)cc(C(=O)NCc2nccs2)c1C)C1CCOCC1 [Cpd 24],IC50,> 50 µM
CCN(c1cc(Cl)cc(C(=O)NCc2cccn3ccnc23)c1C)[C@H]1CC[C@H](N(C)C)CC1 [Cpd 3],IC50,> 25 µM
